Test results taken from PMC8404200, “Synthetic Glycolipids as Molecular Vaccine Adjuvants: Mechanism of Action in Human Cells and In Vivo Activity” (Journal of Medicinal Chemistry, 2021).

Target: T1, MD-2 (TLR4/MD-2 complex) (Homo sapiens, UniProt Q9Y6Y9)
T1 construct: gene LY96; Recombinant human TLR4/MD2 complex; with TLR4
Experiment: SPR (Biacore X100) on immobilized recombinant human TLR4/MD-2; agonism supported in HEK-Blue hTLR4 cells
Type: binding

T1 sequence (Q9Y6Y9 19-160): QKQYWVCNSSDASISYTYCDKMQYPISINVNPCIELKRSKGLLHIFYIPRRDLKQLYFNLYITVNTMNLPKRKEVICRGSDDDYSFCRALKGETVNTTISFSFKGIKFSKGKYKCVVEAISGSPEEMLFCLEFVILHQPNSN
T1 sequence (O00206 24-839 partner): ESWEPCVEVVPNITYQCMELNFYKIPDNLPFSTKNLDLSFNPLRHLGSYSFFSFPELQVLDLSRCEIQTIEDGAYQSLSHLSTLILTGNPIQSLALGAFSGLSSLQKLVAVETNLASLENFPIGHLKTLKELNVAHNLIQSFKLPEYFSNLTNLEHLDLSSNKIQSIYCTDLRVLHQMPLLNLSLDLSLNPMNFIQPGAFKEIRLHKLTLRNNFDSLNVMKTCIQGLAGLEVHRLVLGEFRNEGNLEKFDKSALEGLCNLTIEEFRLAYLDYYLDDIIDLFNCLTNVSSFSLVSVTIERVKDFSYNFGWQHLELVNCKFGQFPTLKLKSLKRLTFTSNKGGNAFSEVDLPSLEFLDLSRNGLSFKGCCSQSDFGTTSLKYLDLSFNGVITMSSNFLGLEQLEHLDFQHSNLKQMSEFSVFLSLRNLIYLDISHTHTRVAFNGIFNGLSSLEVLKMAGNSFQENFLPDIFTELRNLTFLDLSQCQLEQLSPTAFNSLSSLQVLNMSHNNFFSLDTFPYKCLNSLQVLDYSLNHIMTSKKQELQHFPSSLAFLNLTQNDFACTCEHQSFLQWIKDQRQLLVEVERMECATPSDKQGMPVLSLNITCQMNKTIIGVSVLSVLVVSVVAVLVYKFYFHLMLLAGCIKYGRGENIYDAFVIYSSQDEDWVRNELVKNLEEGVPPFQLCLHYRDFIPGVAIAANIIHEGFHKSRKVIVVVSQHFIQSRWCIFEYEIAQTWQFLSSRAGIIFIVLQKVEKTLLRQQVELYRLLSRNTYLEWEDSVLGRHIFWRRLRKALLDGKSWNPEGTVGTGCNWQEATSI

Kd [nM] | Structure (SMILES)
180 | CCCCCCCCCCCCCC(=O)N[C@H]1[C@@H](OP(=O)(O)O)O[C@H](CO)[C@@H](OC(=O)CCCCCCCCCCCCC)[C@@H]1OC(=O)CCCCCCCCCCCCC [FP11]
570 | CCCCCCCCCCCC(=O)N[C@H]1[C@@H](OP(=O)(O)O)O[C@H](CO)[C@@H](OC(=O)CCCCCCCCCCC)[C@@H]1OC(=O)CCCCCCCCCCC [FP18]
